The record followed here is patent US20250241962A1, “METHODS AND COMPOSITIONS FOR INCREASING NEURONAL ACTIVITY AND SYNAPTIC PLASTICITY” (SanBio, Inc., priority 2024, published 2025).

The structures appear in SMILES notation.

In series [1] the test system is vandefitemcel (or SB623 cells). In words: PrestoBlue cell viability of vandefitemcel treated with CB-839. Format: cell-based, human. Particulars: incubation with CB-839, PrestoBlue HS. The protocol: Approximately 50 μL of conditioned medium (CM) was used to determine the glutamate concentration and cell viability. For this assay, PrestoBlue™ high-sensitivity (HS) Cell Viability Reagent (from Thermo Fisher Scientific, Waltham, MA) was used and the reaction absorbance of each sample was read after 2 hours of incubation following the manual procedure provided by the manufacturer.
Glutamate can be involved in cell metabolism, where it is transformed into α-ketoglutarate and then enters into the tricarboxylic acid cycle to generate ATP [25].

The next series relates to glutamate receptor. In words: Glutamate receptor blockage on iFbN culture (MEA spike activity). Format: cell-based, human. Particulars: 50 μM. The protocol: Glutamatergic or GABAergic neurons, 9×10^4 cells per well or 1×10^5 cells per well, were plated in 25 μL volume cell in BrainPhys™ medium supplemented with NeuroCult™ SM1 neuronal supplement and incubated for 30-45 minutes at 37° C. and 5% CO2. For coculturing, vandefitemcel (or SB623) cells or astrocytes were cocultured by adding 10-20 μL of cell solution with 1.5×10^4 cells per well following a new incubation for 45 minutes at 37° C. and 5% CO2. Fresh medium was added to reach a volume of 400 μL per well and cells incubated at 37° C. and 5% CO2. Half of the medium volume was changed every three or four days. To isolate the presynaptic activity on MEAs with iFbNs after 50 days of culture, 50 μM of the broad glutamate receptor antagonist Kynurenic acid (from R&D Systems, Minneapolis, MN) was added at 90 seconds from the start of the recording. Spike activity was assessed to detect the blockage of glutamate receptor activity.
MEA recordings were performed at 37° C. and 5% CO2 using Maestro Edge (from Axion Biosystems, Atlanta, GA). The medium was changed at least two hours before the recordings. Before recordings, levels of CO2 were adjusted to 5%. The duration of each recording was five minutes using AxIS Navigator 3.6.2 with configuration module Neural Real-Time; Spontaneous+Viability from Axion Biosystems with minimum spike rate for active electrodes of five spikes/minute.

On to `O=C(Cc1cccc(OC(F)(F)F)c1)Nc1ccc(CCCCc2nnc(NC(=O)Cc3ccccn3)s2)nn1` [CB-839, Telaglenastat], for which the viability of vandefitemcel entry in series [1] is listed as “did not alter the viability”.

Regarding `O=C(O)c1cc(=O)c2ccccc2[nH]1` [kynurenic acid, Kynurenic acid], the “spike activity of iFbN culture” value in the series on glutamate receptor was “reduction in the spike activity”.
